# Strand notation (5' to 3'): a small letter for the sugar, then the base; units joined by * are phosphorothioate-linked, units joined directly phosphodiester-linked; [ ] holds rarer units or linkages, { } end groups; capitals alone tell only the bases. e = 2'-O-(2-methoxyethyl) (MOE); k = constrained ethyl (cEt); [5mC] = 5-methylcytosine; d = 2'-deoxy (DNA)
# Experiments:
# Type in all cases: cell-based
# [1] = test system: Yap1 mRNA; test: Dose-dependent inhibition of human Yap1 in A-431 cells (Example 7, 10,000 cells per well, RTS36584); conditions: free uptake
# Method: Modified oligonucleotides described in the studies above were tested at various doses in A-431 cells. Cultured A-431 cells at a density of 10,000 cells per well were treated using free uptake with modified oligonucleotides diluted to concentrations described in the tables below. After approximately 48 hours, Yap1 mRNA levels were measured as previously described using the Human Yap1 primer-probe set RTS36584. Yap1 mRNA levels were normalized to total RNA content, as measured by RIBOGREEN®. Results are presented in the tables below as percent control of the amount of Yap1 mRNA relative to untreated control cells (% UTC). IC50s were calculated using a linear regression on a log/linear plot of the data in excel.
# [2] = test system: Yap1 mRNA; test: Antisense inhibition of human Yap1 in A-431 cells by cEt gapmers, single dose (Example 3, RTS36584); conditions: Table 28; Yap1 mRNA as percent of untreated control; 3-10-3 cEt gapmers targeting SEQ ID NO.: 1, and 2
# Summary of the method: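 Read-out is Yap1 mRNA as percent of untreated control, by quantitative RT-PCR normalized to total RNA (RiboGreen). Cells (A-431) received 2,000 nM of 3-10-3 cEt phosphorothioate gapmer via free uptake for roughly 48 hours.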
# [3] = test system: Yap1 mRNA; test: Dose-dependent inhibition of human Yap1 in A-431 cells (Example 8, 10,000 cells per well, RTS4814); conditions: free uptake, approximately 48 hours, RTS4814; for Yap1 mRNA, % UTC: A-431 cells, 10,000 cells per well; for IC50: A-431 cells, linear regression on log/linear plot
# Summary of the method: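 A-431 cells (10,000/well) dosed with modified oligonucleotides by free uptake; Yap1 mRNA measured ~48 h later with primer-probe set RTS4814, normalized to total RNA (RIBOGREEN). Values are % of untreated control; IC50 from linear regression on log/linear plot.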
# [4] = test system: Yap1 mRNA; test: Dose-dependent inhibition of human Yap1 in SNU-449 cells (Example 9, RTS36584); conditions: free uptake; for % UTC (Yap1 mRNA): approximately 48 hours; for IC50: linear regression on a log/linear plot
# Summary of the method: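 SNU-449 cells (10,000/well) took up modified oligonucleotides by free uptake at a range of doses for about 48 h. Yap1 mRNA was quantified with primer-probe set RTS36584, normalised to RIBOGREEN total RNA and expressed as % untreated control; IC50 from linear regression on log/linear plot.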
# [5] = Table 60, 15.6 nM, A-431 cells 10,000 cells per well, 48 hours
# [6] = Table 60, 62.5 nM, A-431 cells 10,000 cells per well, 48 hours
# [7] = Table 60, 4000.00 nM, A-431 cells 10,000 cells per well, 48 hours
# [8] = Table 60, A-431 cells 10,000 cells per well
Substance,% UTC (Yap1 mRNA) ([4]; 31.3 nM),% UTC (Yap1 mRNA) ([4]; 125.0 nM),% UTC (Yap1 mRNA) ([4]; 500.0 nM),% UTC (Yap1 mRNA) ([4]; 2000.00 nM),IC50 [4],further results
958785 (kG*k[5mC]*kA*dA*dT*d[5mC]*d[5mC]*dA*d[5mC]*dA*dA*dT*dT*k[5mC]*k[5mC]*kA; antisense) [compound 958785],–,–,–,–,–,"Yap1 mRNA, % UTC ([1]; 15.6 nM, A-431 cells, 10,000 cells per well, approximately 48 hours): 78 % UTC; Yap1 mRNA, % UTC ([1]; 62.5 nM, A-431 cells, 10,000 cells per well, approximately 48 hours): 52 % UTC; Yap1 mRNA, % UTC ([1]; 4000.00 nM, A-431 cells, 10,000 cells per well, approximately 48 hours): 6 % UTC; IC50 ([1]; A-431 cells, approximately 48 hours, linear regression on log/linear plot): 100 nM"
958593 (kG*kG*kT*d[5mC]*dA*dG*dT*dA*d[5mC]*dA*dG*dA*dG*kG*kG*k[5mC]; antisense) [compound 958593],–,–,–,–,–,"Yap1 mRNA, % UTC [1, 5]: 99 % UTC; Yap1 mRNA, % UTC [1, 6]: 60 % UTC; Yap1 mRNA, % UTC [1, 7]: 15 % UTC; IC50 [1, 8]: 100 nM"
958648 (kG*kA*kA*dT*dA*d[5mC]*dT*dG*dA*dG*dT*d[5mC]*dA*kG*kG*kA; antisense) [compound 958648],–,–,–,–,–,"Yap1 mRNA, % UTC [1, 5]: 80 % UTC; Yap1 mRNA, % UTC [1, 6]: 65 % UTC; Yap1 mRNA, % UTC [1, 7]: 24 % UTC; IC50 [1, 8]: 200 nM"
958658 (kA*k[5mC]*kA*dG*dT*dA*dT*dA*dA*dT*dA*dT*d[5mC]*k[5mC]*kT*kA; antisense) [compound 958658],–,–,–,–,–,"Yap1 mRNA, % UTC [1, 5]: 90 % UTC; Yap1 mRNA, % UTC [1, 6]: 88 % UTC; Yap1 mRNA, % UTC [1, 7]: 29 % UTC; IC50 [1, 8]: 400 nM"
1074798 (kG*k[5mC]*kT*dT*dT*dG*dG*dA*dA*dG*dA*dT*d[5mC]*kT*kG*kA) [compound 1074798],62 % UTC,38 % UTC,17 % UTC,8 % UTC,100 nM,"YAP1 (% UTC) [2]: 4 % UTC; Yap1 mRNA, % UTC ([3]; 31.3 nM): 34 % UTC; Yap1 mRNA, % UTC ([3]; 125.0 nM): 12 % UTC; Yap1 mRNA, % UTC ([3]; 500.0 nM): 5 % UTC; Yap1 mRNA, % UTC ([3]; 2000.00 nM): 6 % UTC; IC50 [3]: < 20 nM"
1074464 (kT*kT*kA*dG*dA*dG*dT*dA*dT*dG*dT*dG*dG*k[5mC]*kA*kA) [compound 1074464],109 % UTC,50 % UTC,19 % UTC,6 % UTC,200 nM,"Yap1 mRNA, % UTC ([3]; 31.3 nM): 25 % UTC; Yap1 mRNA, % UTC ([3]; 125.0 nM): 6 % UTC; Yap1 mRNA, % UTC ([3]; 500.0 nM): 3 % UTC; Yap1 mRNA, % UTC ([3]; 2000.00 nM): 3 % UTC; IC50 [3]: < 20 nM"
1074728 (antisense kT*kG*kA*dG*dG*dT*dA*dT*dA*dA*d[5mC]*dT*dG*kG*kG*k[5mC]) [compound 1074728],69 % UTC,45 % UTC,19 % UTC,8 % UTC,100 nM,"Yap1 mRNA, % UTC ([3]; 31.3 nM): 28 % UTC; Yap1 mRNA, % UTC ([3]; 125.0 nM): 7 % UTC; Yap1 mRNA, % UTC ([3]; 500.0 nM): 4 % UTC; Yap1 mRNA, % UTC ([3]; 2000.00 nM): 4 % UTC; IC50 [3]: < 20 nM"
1198295 (kT*kA*kG*dA*dG*dT*dA*dT*dG*dT*dG*dG*k[5mC]*eA*kA*eT; antisense) [compound 1198295],82 % UTC,47 % UTC,19 % UTC,8 % UTC,100 nM,–
1198525 (kA*kG*dT*dG*dT*dA*dT*dG*dT*d[5mC]*dA*eG*kA*eA*kG*eA) [compound 1198525],62 % UTC,26 % UTC,8 % UTC,1 % UTC,40 nM,–
1198412 (kT*dT*dA*dG*dG*dA*dT*dG*d[5mC]*dA*dT*kG*eG*kT*eT*kT; antisense) [compound 1198412],73 % UTC,54 % UTC,33 % UTC,15 % UTC,200 nM,–
1198815 (kT*kA*dG*dA*dG*dT*dA*dT*dG*dT*dG*kG*e[5mC]*kA*eA*kT; antisense) [compound 1198815],84 % UTC,64 % UTC,34 % UTC,15 % UTC,200 nM,–
1198935 (kG*kA*dT*dT*dT*dA*dG*dG*dA*dT*dG*k[5mC]*dA*kT*dG*kG; antisense) [compound 1198935],50 % UTC,46 % UTC,23 % UTC,11 % UTC,40 nM,–
1198917 (k[5mC]*kA*d[5mC]*dT*dT*dT*dT*dA*d[5mC]*dA*dT*kT*dA*kG*dG*kA; antisense) [compound 1198917],81 % UTC,37 % UTC,12 % UTC,6 % UTC,100 nM,–
1198724 (kA*eG*kA*dG*dT*dA*dT*dG*dT*dG*dG*d[5mC]*eA*eA*kT*kA; antisense) [compound 1198724],56 % UTC,25 % UTC,8 % UTC,3 % UTC,< 30 nM,–
1198543 (kA*kT*kT*dG*dT*d[5mC]*dT*d[5mC]*dA*dT*dG*d[5mC]*k[5mC]*kT*kT*eA; antisense) [compound 1198543],75 % UTC,42 % UTC,19 % UTC,6 % UTC,100 nM,–
1198438 (kT*dG*dT*dA*dT*dG*dT*d[5mC]*dA*dG*dA*kA*eG*kA*eG*kT) [compound 1198438],62 % UTC,28 % UTC,7 % UTC,2 % UTC,40 nM,–
1198904 (kT*kA*dT*dT*dA*dG*dA*dG*dT*dA*dT*kG*dT*kG*dG*k[5mC]; antisense) [compound 1198904],78 % UTC,36 % UTC,23 % UTC,10 % UTC,100 nM,–
1198787 (kA*eG*kT*dG*dT*dA*dT*dG*dT*d[5mC]*dA*dG*eA*eA*kG*kA; antisense) [compound 1198787],68 % UTC,21 % UTC,6 % UTC,1 % UTC,50 nM,–
1197215 (kA*kA*kG*dT*dG*dT*dA*dT*dG*dT*d[5mC]*dA*dG*kA*kA*kG) [compound 1197215],56 % UTC,31 % UTC,7 % UTC,2 % UTC,40 nM,–
1198288 (kG*kA*kA*dA*dT*dT*dG*dT*d[5mC]*dT*d[5mC]*dA*kT*eG*k[5mC]*e[5mC]; antisense) [compound 1198288],77 % UTC,43 % UTC,17 % UTC,7 % UTC,100 nM,–
1197216 (kA*kA*kA*dG*dT*dG*dT*dA*dT*dG*dT*d[5mC]*dA*kG*kA*kA; antisense) [compound 1197216],66 % UTC,39 % UTC,15 % UTC,4 % UTC,100 nM,–
1198499 (kT*kT*dT*dA*dG*dG*dA*dT*dG*d[5mC]*dA*eT*kG*eG*kT*eT) [compound 1198499],89 % UTC,42 % UTC,30 % UTC,12 % UTC,200 nM,–
1197179 (kT*kG*kG*dA*dA*dA*dT*dT*dG*dT*d[5mC]*dT*d[5mC]*kA*kT*kG; antisense) [compound 1197179],58 % UTC,38 % UTC,17 % UTC,7 % UTC,100 nM,–
